This note sets out measurements from ChEMBL document CHEMBL1201862, “PubChem BioAssay data set” (2004).

Each structure is given as a SMILES string.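 Cultured in 96-well plates, cells were exposed to test compound for 48 hours across five concentrations. GI50 = concentration required for 50% inhibition of growth.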 Active and inactive are the calls of the source. Cut-off read from the data, not from the text of the source: active = GI50 up to about 1.1 µM and inactive = higher. A value given as a limit tells only on which side of the number the result lay.

Some test systems named below: BT-549; CAKI-1; CCRF-CEM; DU-145; HCT-116; HCT-15; Hs-578T; KM12; MDA-MB-231; OVCAR-5; RPMI-8226; RXF 393; SF-268; SK-OV-3; SR; T47D; TK-10; U-251; UACC-257; UO-31.
What all share (test): DTP human tumour cell line panel, 48 h

As for `O=C(CCc1ccc(O)c(O)c1)NCCc1cc(O)cc(O)c1`, the GI50 (as a rule, the concentration at which growth is held to half of that of the control) was > 100 µM (inactive) with BT-549; > 100 µM (inactive) in the assay with CAKI-1; 29.2 µM (inactive) with CCRF-CEM; > 100 µM (inactive) in the assay on DU-145; > 100 µM (inactive) in the assay on HCT-116; greater than 100 µM in the assay with HCT-15. Moreover, the GI50 in the assay on Hs-578T, in the assay on KM12, in the assay with MDA-MB-231, in the assay with OVCAR-5, in the assay with RPMI-8226 and with RXF 393 was > 100 µM (inactive) throughout. Also, the GI50 with SF-268, in the assay with SK-OV-3, in the assay with SR, with T47D, with TK-10 and with U-251 was > 100 µM (inactive) each time. Further, the GI50 is > 100 µM (inactive) in the assay on UACC-257 and 63.5 µM (inactive) with UO-31.

For the molecule `COc1ccc(C2(c3ccc(OC)cc3)OC(=O)c3cccc4cccc2c34)cc1`, the GI50 in the assay on BT-549 is 11.4 µM (inactive); in the assay on CAKI-1, 2.96 µM (inactive); in the assay with CCRF-CEM, 3.18 µM (inactive); with DU-145, > 100 µM (inactive); in the assay with HCT-116, 3.71 µM (inactive); with HCT-15 it was 4.15 µM. Besides, the GI50 in the assay on Hs-578T is 9.51 µM (inactive); with KM12, 3.85 µM (inactive); in the assay with MDA-MB-231, > 100 µM (inactive); in the assay on OVCAR-5, > 100 µM (inactive); in the assay on RPMI-8226 it was 3.12 µM (inactive); in the assay on RXF 393, 15.9 µM (inactive). Besides, the GI50 in the assay on SF-268 was > 100 µM (inactive); with SK-OV-3 it was 6.46 µM (inactive); in the assay with SR, 2.54 µM (inactive); in the assay with T47D, 2.24 µM (inactive); in the assay with TK-10, 5.94 µM (inactive); in the assay with U-251, 4.38 µM (inactive). Also, the GI50 in the assay with UACC-257 and with UO-31 was > 100 µM (inactive) in each case.

With `c1ccc(CSc2nnc3c4ccccc4c4ccccc4c3n2)cc1`, the GI50 in the assay with BT-549 was 50 µM (inactive); in the assay on CAKI-1 it was 78.9 µM (inactive); in the assay on CCRF-CEM, 27.7 µM (inactive); with DU-145, > 82.2 µM (inactive); in the assay with HCT-116, > 82.4 µM (inactive); in the assay on HCT-15, greater than 100 µM. Further, the GI50 in the assay with Hs-578T was 36.2 µM (inactive); in the assay on KM12 it was > 100 µM (inactive); in the assay on MDA-MB-231, 35.2 µM (inactive); with OVCAR-5 it was > 100 µM (inactive); in the assay with RPMI-8226, 48 µM (inactive); with RXF 393, > 52.1 µM (inactive). The GI50 in the assay on SF-268 was 19.1 µM (inactive); in the assay on SK-OV-3, 17.7 µM (inactive); in the assay on SR, 30.2 µM (inactive); in the assay with T47D, 34.1 µM (inactive); in the assay with TK-10 it was 26.9 µM (inactive); in the assay with U-251 it was 33.3 µM (inactive). The GI50 in the assay with UACC-257 was > 100 µM (inactive); in the assay with UO-31, > 57.7 µM (inactive).

For `O=C1/C(=C/c2ccccc2)CN(C(=O)/C=C/c2ccccc2)C/C1=C\c1ccccc1`, the GI50 is 2.26 µM (inactive) with BT-549; 23.7 µM (inactive) in the assay with CAKI-1; 2.85 µM (inactive) in the assay on CCRF-CEM; 18.6 µM (inactive) in the assay on DU-145; 0.764 µM (active) in the assay on HCT-116; 6.17 µM in the assay on HCT-15. The GI50 in the assay with Hs-578T was 4.27 µM (inactive); in the assay on KM12, 4.17 µM (inactive); in the assay with MDA-MB-231, 3.18 µM (inactive); with OVCAR-5, 17.6 µM (inactive); in the assay on RPMI-8226, 1.07 µM (active); in the assay with RXF 393, 15.6 µM (inactive). In addition, the GI50 with SF-268 was 11.2 µM (inactive); in the assay with SK-OV-3, 27.7 µM (inactive); with SR it was 1.3 µM (inactive); in the assay on T47D it was 4.43 µM (inactive); in the assay on TK-10, 16.1 µM (inactive); in the assay with U-251 it was 3.59 µM (inactive). Further, the figures for the GI50 in the assay with UACC-257 and in the assay with UO-31 were 12.7 µM (inactive) and 12.4 µM (inactive), respectively.

As to `CC(C)C(C/C=C1/CC(CO)(COC(=O)C2CCCCC2)OC1=O)C(C)C` (centres undefined), the GI50 in the assay on BT-549 is 25.2 µM (inactive); in the assay with CAKI-1, 15.2 µM (inactive); in the assay with CCRF-CEM it was 17.2 µM (inactive); in the assay with DU-145, 13.2 µM (inactive); in the assay on HCT-116, 17.5 µM (inactive); in the assay on HCT-15, 21.6 µM. The GI50 is 16.7 µM (inactive) in the assay with Hs-578T; 21.1 µM (inactive) with KM12; 17 µM (inactive) with MDA-MB-231; 18.7 µM (inactive) in the assay on OVCAR-5; 21.5 µM (inactive) in the assay with RXF 393; 17.6 µM (inactive) with SF-268. In addition, the GI50 is > 100 µM (inactive) in the assay with SK-OV-3; 28 µM (inactive) with SR; 21.3 µM (inactive) in the assay on T47D; 16.8 µM (inactive) in the assay with TK-10; 18.3 µM (inactive) with U-251; 26.9 µM (inactive) with UACC-257. The GI50 in the assay with UO-31 is 17.7 µM (inactive).

Take `CCOC(=O)C(=NN(C)c1ncccc1N)C(=O)OCC`: the GI50 in the assay on BT-549 is > 100 µM (inactive); in the assay with CAKI-1, 33.3 µM (inactive); in the assay on CCRF-CEM, 37.5 µM (inactive); with DU-145 it was > 100 µM (inactive); in the assay with HCT-116, 26.4 µM (inactive); in the assay on HCT-15, 32.9 µM. In addition, the GI50 with Hs-578T was > 100 µM (inactive); with KM12, > 100 µM (inactive); with MDA-MB-231 it was 25.6 µM (inactive); in the assay with RPMI-8226 it was 30.3 µM (inactive); with RXF 393 it was 84.9 µM (inactive); with SF-268 it was > 100 µM (inactive). Moreover, the GI50 is > 100 µM (inactive) with SK-OV-3; 36.2 µM (inactive) in the assay with SR; 25.9 µM (inactive) in the assay on T47D; 79.3 µM (inactive) with TK-10; > 100 µM (inactive) with U-251; 24.4 µM (inactive) in the assay with UACC-257. Also, in the assay on UO-31, the GI50 was 38.8 µM (inactive).

For `Cc1nc(-c2ccc(Cl)cc2)cn2c1nc1ccccc12`, the GI50 in the assay on BT-549 was > 93.5 µM (inactive); in the assay with CAKI-1 it was > 100 µM (inactive); in the assay with CCRF-CEM, 23.5 µM (inactive); with DU-145 it was > 100 µM (inactive); in the assay on HCT-116, > 100 µM (inactive); with HCT-15 it was 19.4 µM. Further, the GI50 in the assay on Hs-578T was > 100 µM (inactive); in the assay with KM12, > 82.6 µM (inactive); with MDA-MB-231, > 100 µM (inactive); in the assay with OVCAR-5, > 31 µM (inactive); in the assay on RPMI-8226, > 100 µM (inactive); in the assay with RXF 393, > 100 µM (inactive). The GI50 with SF-268 is > 100 µM (inactive); with SK-OV-3, > 100 µM (inactive); in the assay with SR, 90.6 µM (inactive); with T47D, 0.955 µM (active); in the assay with TK-10 it was > 100 µM (inactive); with U-251, > 100 µM (inactive). The GI50 in the assay on UACC-257 is > 100 µM (inactive).

Turning to `CC(=O)O[C@H]1C[C@H]2[C@@H]([C@H](OC(C)=O)C[C@@H]3CC4(CC[C@@]32C)OOC2(CCCCC2)OO4)[C@@H]2CC[C@H]([C@H](C)CCC(N)=O)[C@@]12C`, the GI50 in the assay on BT-549 is 2.07 µM (inactive); with CAKI-1 it was 0.63 µM (active); with CCRF-CEM, 1.28 µM (inactive); in the assay on DU-145, 1.93 µM (inactive); with HCT-116 it was 3.13 µM (inactive); in the assay with HCT-15, 2 µM. The GI50 in the assay with Hs-578T is 5.47 µM (inactive); with KM12, 1.71 µM (inactive); in the assay on MDA-MB-231 it was 1.95 µM (inactive); in the assay with OVCAR-5 it was 2.34 µM (inactive); in the assay on RPMI-8226, 0.726 µM (active); with RXF 393, 2.76 µM (inactive). Also, the GI50 with SF-268 was 1.66 µM (inactive); in the assay on SK-OV-3, 11.6 µM (inactive); in the assay with SR it was 0.0787 µM (active); with T47D, 1.63 µM (inactive); with TK-10 it was 2.6 µM (inactive); with U-251, 1.51 µM (inactive). Moreover, the GI50 in the assay with UACC-257 is 5.62 µM (inactive).

With `O=C(c1cc2ccccc2cc1O)N1CCCCC1`, the GI50 in the assay on BT-549 was 35.2 µM (inactive); in the assay on CAKI-1, 50.7 µM (inactive); in the assay with CCRF-CEM, 14.5 µM (inactive); in the assay with DU-145, 64.1 µM (inactive); with HCT-116 it was 39.6 µM (inactive); in the assay with HCT-15, 35.8 µM. The GI50 in the assay with Hs-578T was 46 µM (inactive); with KM12, 33.6 µM (inactive); in the assay on MDA-MB-231, 68.2 µM (inactive); in the assay on RPMI-8226 it was 17.6 µM (inactive); with RXF 393 it was 51.1 µM (inactive); in the assay with SF-268, 36.1 µM (inactive). In addition, the GI50 in the assay with SK-OV-3 was 42.2 µM (inactive); with SR, 16.7 µM (inactive); in the assay on T47D it was 37.6 µM (inactive); with TK-10, > 100 µM (inactive); in the assay with U-251, 52.4 µM (inactive); in the assay on UACC-257, 53 µM (inactive). Also, the GI50 with UO-31 was 40.5 µM (inactive).

For the molecule `CCOc1cc(-c2nc3ccccn3c2/N=C/c2cc(Br)ccc2O)ccc1O`, the GI50 with BT-549 is 29.6 µM (inactive); in the assay with CAKI-1 it was 67.1 µM (inactive); with CCRF-CEM, > 100 µM (inactive); in the assay with DU-145, 12.5 µM (inactive); in the assay on HCT-116 it was 30.8 µM (inactive); in the assay on HCT-15, 8.51 µM. Moreover, the GI50 in the assay on Hs-578T was 61.4 µM (inactive); in the assay on MDA-MB-231 it was 30.5 µM (inactive); in the assay with OVCAR-5, 73.5 µM (inactive); with RPMI-8226, 26.5 µM (inactive); in the assay on RXF 393, 16 µM (inactive); in the assay on SF-268 it was 19.1 µM (inactive). Moreover, the GI50 is 29.2 µM (inactive) in the assay on SK-OV-3; 35.6 µM (inactive) with SR; 2.37 µM (inactive) with T47D; 21.1 µM (inactive) in the assay with TK-10; 17.5 µM (inactive) in the assay with U-251; 18.1 µM (inactive) in the assay on UACC-257. For the same molecule, in the assay on UO-31, the GI50 is 27 µM (inactive).
